Test results published in ChEMBL document CHEMBL3400033, “Molecular docking and antiviral activity of N-substituted benzyl/phenyl-2-(3,4-dimethyl-5,5-dioxidopyrazolo[4,3-c][1,2]benzothiazin-2(4H)-yl)acetamides” (Bioorg Med Chem Lett, 2015).

How the values were obtained:
[1] = tested on: Human immunodeficiency virus 1; assay: Antiviral activity against HIV1 LAV-1 infected in human PBMC cells after 6 days by RT assay; format: functional, organism-based; conditions: Human immunodeficiency virus 1, LAV-1, PBMC, 144 h
PBMC = assay: Cytotoxicity against human PBMC cells assessed as reduction in cell viability after 5 days by Cell Titer 96 Aqueous One Solution cell proliferation assay; format: cell-based; conditions: 120 h
Vero = assay: Cytotoxicity against african green monkey Vero cells assessed as reduction in cell viability after 5 days by Cell Titer 96 Aqueous One Solution cell proliferation assay; format: cell-based; conditions: Chlorocebus sabaeus, 120 h
CCRF-CEM = assay: Cytotoxicity against human CEM cells assessed as reduction in cell viability after 5 days by Cell Titer 96 Aqueous One Solution cell proliferation assay; format: cell-based; conditions: 120 h
[2] = tested on: Human immunodeficiency virus 1; assay: Antiviral activity against HIV1; format: functional, organism-based

| SMILES | EC50 [1] | EC90 [1] | IC50 (PBMC) | IC50 (Vero) | IC50 (CCRF-CEM) | EC50 [2] |
| --- | --- | --- | --- | --- | --- | --- |
| Cc1c2c(nn1CC(=O)NCc1ccccc1Br)-c1ccccc1S(=O)(=O)N2C | 16.7 µM | 87.5 µM | 63.1 µM | 36.5 µM | 38.1 µM |  |
| COc1ccccc1CNC(=O)Cn1nc2c(c1C)N(C)S(=O)(=O)c1ccccc1-2 | 17.2 µM | 60.3 µM | ≥ 100 µM | > 100 µM | > 100 µM |  |
| Cc1c2c(nn1CC(=O)Nc1cccc(Br)c1)-c1ccccc1S(=O)(=O)N2C | 6.3 µM | 15.3 µM | 8.1 µM | 7.2 µM | 5.2 µM |  |
| Cc1c2c(nn1CC(=O)Nc1ccccc1)-c1ccccc1S(=O)(=O)N2C | 6.8 µM | 16.3 µM | 7.7 µM | 6.8 µM | < 1 µM |  |
| C/C(=N\NC(=O)CN1c2c(-c3ccccc3)n[nH]c2-c2ccccc2S1(=O)=O)c1cc(Cl)sc1Cl |  |  |  |  |  | 3.2 µM |
| COc1cccc(NC(=O)Cn2nc3c(c2C)N(C)S(=O)(=O)c2ccccc2-3)c1 | 7.2 µM | 17.3 µM | 10.5 µM | ≥ 100 µM | 9.3 µM |  |
| Cc1ccccc1CNC(=O)Cn1nc2c(c1C)N(C)S(=O)(=O)c1ccccc1-2 | ≥ 100 µM | > 100 µM | > 100 µM | > 100 µM | > 100 µM |  |
| Cc1c2c(nn1CC(=O)Nc1ccccc1Br)-c1ccccc1S(=O)(=O)N2C | 6.5 µM | 15.7 µM | 2.4 µM | 8.2 µM | 6 µM |  |
| Cc1ccc(CNC(=O)Cn2nc3c(c2C)N(C)S(=O)(=O)c2ccccc2-3)cc1 | 9.9 µM | 77.7 µM | 52.2 µM | 63.1 µM | > 100 µM |  |
| COc1ccc(CNC(=O)Cn2nc3c(c2C)N(C)S(=O)(=O)c2ccccc2-3)cc1 | 18.6 µM | ≥ 100 µM | > 100 µM | 73 µM | > 100 µM |  |
| Cc1c2c(nn1CC(=O)Nc1ccccc1F)-c1ccccc1S(=O)(=O)N2C | 7.6 µM | 35.4 µM | 18 µM | 28.2 µM | 9.5 µM |  |
| COc1ccc(NC(=O)Cn2nc3c(c2C)N(C)S(=O)(=O)c2ccccc2-3)c(OC)c1 | > 100 µM | > 100 µM | > 100 µM | > 100 µM | > 100 µM |  |
| COc1cccc(CNC(=O)Cn2nc3c(c2C)N(C)S(=O)(=O)c2ccccc2-3)c1 | 21.1 µM | 92 µM | 18.7 µM | 31.1 µM | 28.8 µM |  |
| Cc1c2c(nn1CC(=O)NCc1ccccc1F)-c1ccccc1S(=O)(=O)N2C | 57.5 µM | ≥ 100 µM | 87.5 µM | 96.1 µM | 82 µM |  |
| Cc1c2c(nn1CC(=O)NCc1ccc(F)cc1)-c1ccccc1S(=O)(=O)N2C | 22.4 µM | ≥ 100 µM | > 100 µM | > 100 µM | 41.9 µM |  |
| Cc1c2c(nn1CC(=O)NCc1ccccc1Cl)-c1ccccc1S(=O)(=O)N2C | 15.9 µM | 28.5 µM | 74.2 µM | 38.7 µM | 68.4 µM |  |
